Series [1] can be described thus: DPPH scavenging assay. The conditions noted are these: for DPPH Radicals, % of Control: compounds at 100 µM, 30 min, absorbance 520 nm, mean ± SEM. On the procedure:
The compounds were dissolved in DMSO, and the solutions (120 µL) were dispensed into wells of a 96-well microplate. In all, 30 µL of the DPPH (Sigma-Aldrich, Steinheim, Germany) solution in MeOH (1.5 × 10^−4 M) was added to each well. The concentrations of the compounds in mixture were 10 and 100 µM. Pure DMSO was used as a control. The ascorbic acid was used as a positive control. The mixture was shaken and left to stand for 30 min, and the absorbance of the resulting solution was measured at 520 nm with a microplate reader MultiscanFC (ThermoLabsystems Inc., Beverly, MA, USA). The radical scavenging activity of all compounds at 100 µM was presented as a percent of the DMSO data.
For orientation: DPPH is a stable violet radical that fades when it is reduced.

For series [2], the system named is CoCl2-treated H9c2 cells. Description: Cardioprotective activity in CoCl2-mimic hypoxia. The format is cell-based, rat. The conditions noted are these: MTT. The protocol:
The H9c2 cells were treated with a dH2O-solution of CoCl2 at a concentration of 500 µM for 2 h. Then, compounds at a concentration of 10 µM were added for 46 h. The viability of the H9c2 cells was measured by an MTT assay.

The subject of series [3] is human prostate cancer PC-3 cells. Description: Cell viability (MTT) assay, cytotoxic activity toward PC-3 cells. The class given is cell-based. The settings on record: 48 h; for IC50: Homo sapiens, PC-3 cells; for decrease of PC-3 cell viability: concentration of 100 µM. On the procedure: (§1) The human cancer PC-3 cells were purchased from ATCC (Manassas, VA, USA). The rat cardiomyocytes H9c2 cells were kindly provided by Prof. Dr. Gunhild von Amsberg from Martini-Klinik Prostate Cancer Center, University Hospital Hamburg-Eppendorf, Hamburg, Germany.
(§2) The PC-3 and H9c2 cells were seeded at concentrations of 5 × 10^3 cell/well and 3 × 10^3 cell/well, respectively, and the experiments were started after 24 h. The compounds at concentrations up to 100 µM were added into the wells for 48 h, and the viability of the cells was measured by an MTT (3-(4,5-dimethylthiazol-2-yl)-2,5-diphenyltetrazolium bromide) assay, which was performed according to the manufacturer’s instructions (Sigma-Aldrich, Munich, Germany). All compounds were diisolved with DMSO so that the final concentration of DMSO in the cell culture was not more than 1%. Moreover, DMSO was used as a control.
(§3) The results were presented as a percent of the control data, and the concentration of the cell viability inhibition on 50% (IC50) was calculated.

Series [4] deals with rat normal cardiomyocytes H9c2. The series is described as follows: Cell viability (MTT) assay, cytotoxic activity toward H9c2 cells. The format is cell-based. The settings on record: 48 h. On the procedure:
as §1, §2, §3

The test system of series [5] is rotenone-treated H9c2 cells. Description: Cardioprotective activity against rotenone-induced toxicity. The format is cell-based, rat. The protocol:
The H9c2 cells were treated with rotenone (0.1% DMSO solution) at a concentration of 10 µM for 1 h. Then, compounds at a concentration of 10 µM were added for 23 h. The viability of the H9c2 cells was measured by an MTT assay.

SMILES strings stand for the structures.

For `O=C1O[C@H]([C@@H](O)CO)C(O)=C1O` [Ascorbic acid, ascorbic acid, reference compound], the “DPPH Radicals, % of Control” value in series [1] was 10.5 ± 3.2 % of Control.

For the compound `[Cl-].[Cl-].[Co+2]` [CoCl2, cobalt chloride (II), reference compound], in series [2] (CoCl2 500 µM), the “decrease of viability of H9c2 cells by CoCl2 treatment” value came to 54.1%.

Turning to `COC1=C(OC)[C@@H](O)[C@](C)(O)[C@@H](C)C1=O` [Compound 1, lopouzanone A], the “DPPH Radicals, % of Control” value in series [1] was 93.8 ± 0.5 % of Control. Also, in series [3], the IC50 – broadly, the concentration that inhibits the measured activity by half – is more than 100 µM and the “decrease of PC-3 cell viability” value is recorded as 27–32%. The IC50 in series [4] is more than 100 µM.

For `COC1=C(OC)C(O)C(C)(O)C(C)C1=O` (centres unmarked) [Compound 2, lopouzanone B], the “DPPH Radicals, % of Control” value in series [1] is 100.2 ± 1.0 % of Control. In series [3], the IC50 was more than 100 µM and the “decrease of PC-3 cell viability” value was 27–32%. The compound also gave an IC50 in series [4] of more than 100 µM.

As to `COC1=C(OC)C(=O)C(C)C(C)C1=O` (centres unmarked) [Compound 3, gliorosein], in series [1], the “DPPH Radicals, % of Control” value is listed as 86.1 ± 1.8 % of Control. The “decrease of the amount of DPPH radical” value in series [1] (concentration of 100 µM) is given as 13.9%. In addition, the IC50 in series [3] was 58.9 ± 1.5 µM; in series [4] it was more than 100 µM. For the same compound, the viability (in general, a per cent measure of how many cells are alive, often set against a control) at 10 µM came out at 23.5% in series [2] (Rattus norvegicus, H9c2, compound at 10 µM for 46 h after CoCl2 500 µM for 2 h, read-out: increase of viability of CoCl2-treated H9c2 cells) and 16.6% in series [5] (Rattus norvegicus, H9c2, read-out: increase of viability of rotenone-treated H9c2 cells).

In the case of `C[C@@H]1C/C=C/C(=O)C/C=C/[C@H](O)CC(=O)O1` [Compound 4, balticolid], in series [1], the “DPPH Radicals, % of Control” value is 98.6 ± 3.4 % of Control. Also, the IC50 in series [3] was 38.9 ± 1.9 µM; in series [4], more than 100 µM.

As to `C[C@@H]1C/C=C/[C@@H](O)C/C=C/[C@@H](O)CC(=O)O1` [Compound 5, dendrodolide G], the “DPPH Radicals, % of Control” value in series [1] is recorded as 98.9 ± 1.4 % of Control. In addition, in series [3], the IC50 is more than 100 µM and the “decrease of PC-3 cell viability” value was 27–32%. Besides, the IC50 in series [4] was more than 100 µM.

Turning to `C/C=C/C=C/C=C/[C@@H]1C[C@@H](O)[C@H](O)[C@H](O)[C@@H]1CO` [Compound 8, dendrodochol B], in series [1], the “DPPH Radicals, % of Control” value was 99.4 ± 3.3 % of Control. The IC50 in series [3] and in series [4] was more than 100 µM throughout. Besides, in series [3], the “decrease of PC-3 cell viability” value is reported as 27–32%.

`C/C=C/C=C/C=C/[C@@H]1C[C@@H](OC(C)=O)[C@H](O)[C@H](O)[C@@H]1CO` [Compound 9, 1-O-acetyl dendrodochol B]: the “DPPH Radicals, % of Control” value in series [1] was 102.7 ± 1.8 % of Control. Also, the IC50 in series [3] and in series [4] was more than 100 µM in each case. In addition, the “decrease of PC-3 cell viability” value in series [3] was 27–32%.

Consider `C=C(C)[C@H]1Cc2c(ccc3c2O[C@@H]2COc4cc(OC)c(OC)cc4[C@@H]2C3=O)O1` [rotenone, reference compound], for which the “decrease of viability of H9c2 cells by rotenone treatment” value in series [5] (rotenone 10 µM, MTT) turned out to be 32.1%.

(Values after paper PMC9655818, “Cytoprotective Polyketides from Sponge-Derived Fungus Lopadostoma pouzarii” (Molecules, 2022).)
